Measurements: patent US10160705B2, “Class of HDAC inhibitors expands the renal progenitor cells population and improves the rate of recovery from acute kidney injury” (University of Pittsburgh—Of the Commonwealth System of …, priority 2011, dated 2018)

Tested on: renal progenitor cells
Assay: In situ hybridization for lhx1a expression in 10-somite embryos (renal progenitor cell expansion)
Type: in vivo
Details: for responders at 0.2 µM / responders at 0.4 µM / responders at 0.8 µM / responders at 1.5 µM / responders at 3 µM / EC50: Danio rerio; for responders at 0.2 µM / responders at 0.4 µM / responders at 0.8 µM / responders at 1.5 µM / responders at 3 µM: percent of embryos with expanded kidney field; for responders at 0.2 µM: 200 nM, read-out: Expansion of Cells (including repeats* and recounts**) 200 nM; for responders at 0.4 µM: 400 nM, read-out: Expansion of Cells (including repeats* and recounts**) 400 nM; for responders at 0.8 µM: 800 nM, read-out: Expansion of Cells (including repeats* and recounts**) 800 nM; for responders at 1.5 µM: read-out: Expansion of Cells (including repeats* and recounts**) 1.5 μM; for responders at 3 µM: read-out: Expansion of Cells (including repeats* and recounts**) 3 μM; for EC50: first pass EC50 from percent expansion (Excel trendline), average where several experiments
Experimental: PTBA was synthesized as described below. Hydroxyurea and aphidicolin were obtained from Sigma-Aldrich.
In situ hybridization and immunocytochemistry: In situ hybridization was performed as previously described with some modifications.142 Hybridization temperature was 65° C. Embryos were blocked in 2% blocking reagent (Roche) with 5% sheep serum in MAB (100 mM maleic acid and 150 mM NaCl [pH 7.5]). Whole-mount immunocytochemistry with 1:25 mouse anti-α6F antibody (Developmental Studies Hybridoma Bank) and 1:100 Cy3 secondary antibody (Jackson ImmunoResearch) was performed as described previously.108 Embryos were embedded in JB-4 for sectioning per the manufacturer's instructions (Polysciences), sectioned at 5 μm, and mounted with Cytoseal 60 (Richard-Allan Scientific).
The remaining PTBA analogs were synthesized.
In situ hybridization for lhx1a was performed as described above. […] Compounds were classified as effective, partially-effective or ineffective based on comparison to the effects of PTBA at a given concentration.
Testing of the compounds is on-going, but for those tested, Table 6 provides first pass EC50s based upon colormetric in situ hybridizations for the Lhx1a mRNA expression levels. After the procedure is run, in situ hybridization is done for the lhx1 mRNA expression and the number of embryos that show an expanded kidney field is manually counted to establish the percent of embryos showing expansion. Then the EC50 is determined by plotting the percent expansion in Excel, graphing the results and using the trendline function to determine the 50 percent point.

| SMILES | responders at 0.2 µM [%] | responders at 0.4 µM [%] | responders at 0.8 µM [%] | responders at 1.5 µM [%] | responders at 3 µM [%] | EC50 [nM] | lhx1a expansion, percent of treated embryos (3 μM from 2 hpf, 10-somite embryos) |
| --- | --- | --- | --- | --- | --- | --- | --- |
| Nc1ccccc1NC(=O)CCCCCSc1ncccn1 [UPHD-00072, N-(2-aminophenyl)-6-(pyrimidin-2-ylsulfanyl)hexanamide] | 0 | 0 | 5 | 5 | 5 | > 3000 |  |
| O=C(CCCCSc1ccccc1)NO [UPHD-00035, N-hydroxy-5-(phenyl-sulfanyl)pentanamide] | 25 | 10 | 0 | 0 | 21.1 | > 3000 |  |
| COC(=O)CCCCCSc1ccc(OC)cc1 [UPHD-00090, methyl 6-[(4-methoxy-phenyl)sulfanyl]hexanoate] | 0 | 12 | 25 | 26 | 65 | 2340 |  |
| O=C(CCCCCCSc1ccc(F)cc1)NO [UPHD-00042, 7-[(4-fluoro-phenyl)sulfanyl]-N-hydroxyheptanamide] |  |  |  |  |  | > 3000 |  |
| Nc1ccccc1NC(=O)CCCCCSc1ccc(F)cc1 [UPHD-00053, N-(2-aminophenyl)-6-[(4-fluoro-phenyl)sulfanyl]hexanamide] | 20 | 5 | 85 | 100 | 100 | 790 |  |
| O=C(NO)c1ccc(CCSc2ccccc2)cc1 [UPHD-00061, N-hydroxy-4-[2-(phenyl-sulfanyl)ethyl]benzamide] | 5.5 | 0 | 0 | 6 | 37 | > 3000 |  |
| COC(=O)CCCCCSc1ccc2ccccc2c1 [UPHD-00057, methyl 6-(naphthalen-2-ylsulfanyl)hexanoate] | 19 | 19 | 11 | 18 | 29 | > 3000 |  |
| Nc1ccccc1NC(=O)CCCCCSc1nc2ccccc2s1 [UPHD-00071, N-(2-aminophenyl)-6-(1,3-benzothiazol-2-ylsulfanyl)hexanamide] | 12 | 42 | 74 | 26 | 70 |  |  |
| NC(CCSc1ccccc1)C(=O)O (stereo not drawn) [Compound 2-amino-PTBA, 2-amino-PTBA, reference compound] |  |  |  |  |  |  | no expansion |
| COC(=O)CCCCSc1ccc(F)cc1 [UPHD-00032, methyl 5-[(4-fluoro-phenyl)sulfanyl]pentanoate] |  |  | 0 | 0 | 0 | > 3000 |  |
| COC(=O)CCCCCCSc1ccc(F)cc1 [UPHD-00039, methyl 7-[(4-fluor-phenyl)sulfanyl]heptanoate] |  |  | 20 | 35 | 11 | > 3000 |  |
| COC(=O)CCCCCSc1ccc(F)cc1 [UPHD-00048, methyl 6-[(4-fluoro-phenyl)sulfanyl]hexanoate] |  |  | 100 | 100 | 100 | 280 |  |
| COC(=O)CCCCCSc1ccccc1 [UPHD-00047, methyl 6-(phenyl-sulfanyl)hexanoate] |  |  | 100 | 100 | 100 | 400 |  |
| COC(=O)c1ccc(CSc2ccc(F)cc2)cc1 [UPHD-00046, methyl 4-{[(4-fluoro-phenyl)sul-fanyl]methyl}benzoate] |  |  | 17 | 30 | 20 | > 3000 |  |
| COC(=O)CCCCCSc1nc2ccccc2s1 [UPHD-00062] | 11 | 12 | 0 | 0 | 0 | > 3000 |  |
| COC(=O)CCCCCSc1ccccn1 [UPHD-00065, methyl 6-(pyridin-2-ylsulfanyl)hexanoate] | 0 | 20 | 6 | 11 | 29 | > 3000 |  |
